How the values were obtained:
[1] = test system: PI3K/AKT pathway (AKT, P-AKT, PI3K, PTEN); assay: Western blot (immunoblotting) of tumor tissue from A549 xenograft mice; type: in vivo, nude mice; conditions: for PTEN protein level in tumors: gefitinib 30 mg/kg, 6b both doses, vs control untreated mice
Description: Tissue that had been kept at −80 °C was removed and placed on ice for 5 min. A total of 20 mg of tissue was diced and placed in a 1.5 mL microcentrifuge tube kept on ice. The tissue was lysed to extract the proteins using RIPA lysis buffer with a cocktail (IX) of phosphatase and protease inhibitors, followed by sonication for 30 min. After that, the mixture was centrifuged, and the supernatant was collected for protein estimation using the Bradford assay. Thereafter, immunoblotting was performed using SDS-PAGE for the separation and resolving of individual proteins by their molecular weights. The proteins were further transferred to nitrocellulose membranes, and blocking was performed in 3% powdered milk solution. Further, the membrane was washed using TBST buffer and was incubated in primary antibody (CST) for 3 h. After incubation, the membrane was washed in TBST and re-incubated for 1h in secondary antibody. The immune complex was detected using ChemiDoc^TM (BioRad) after washing the membrane with TBST [46].

[2] = test system: Twist, Zeb1, and Hif-1α gene expression; assay: qPCR analysis of Twist, Zeb1 and Hif-1α in tumor tissue from treated mice; type: in vivo, nude mice; conditions: vs untreated mice
[3] = In vitro microsomal stability, human liver microsomes; type: in vitro ADME; conditions: for microsomal CLint at 1 µM / half-life at 1 µM / remaining at 0.5 h, 1 µM: human, liver microsomes, 0.5 mg/mL microsomes; for microsomal CLint at 1 µM / half-life at 1 µM: pH 7.4, NADPH; for microsomal CLint at 1 µM: read-out: CLint HLM; for half-life at 1 µM: read-out: t½ HLM; for remaining at 0.5 h, 1 µM: NADPH 1 mM, pH 7.4, 37 °C, read-out: % Remaining after 30 min HLM
Description: (§1) Compounds were incubated at a final concentration of 1 µM with human (HLM) and mouse (MLM) at 0.5 mg/mL and NADPH (1 mM) in 100 mM phosphate buffer (pH 7.4) at 37 °C. The reactions were terminated at 0 and 30 min by the addition of cold acetonitrile containing propranolol (50 ng/mL) as an internal standard.

EGFR = test system: EGFR; parameters: method as in PMID 25342981, PMID 27121209; conditions: earlier report of the authors; read-out: IC50 (EGFR inhibition); cited from earlier work
[4] = test system: H1975 lung cancer cells with mutant EGFR (L858R/T790M); conditions: gefitinib-resistant H1975, EGFR L858R/T790M; earlier report of the authors; read-out: IC50 (anti-proliferative, H1975 cells); cited from earlier work
[5] = In vitro microsomal stability, mouse liver microsomes
Description: as §1

A549 xenograft tumor = assay: A549-cell-induced lung cancer xenograft model in nude mice; conditions: for % tumor growth inhibition: intraperitoneally once a week, 21 days; for Average tumor weight: compared with the other groups; for Cytotoxic effect on the tumor (H&E staining): excised tumors
Description: The animal experiments were performed as per the guidelines of the Committee for the Purpose of Control and Supervision of Experiments on Animals (CPCSEA) with the approval of the Institutional Animal Ethics Committee (# IAEC/19/14). Four–five-week-old male athymic nude mice were procured from Vivo Bio Tech Ltd., Hyderabad, India. Animals were kept in an individually ventilated caging (IVC) system in a pathogen-free environment with standard conditions of temperature: 22 ± 1 °C, humidity: 50 ± 10%, and a 12 h light/dark cycle maintained in the National Toxicology Center (NTC) in the National Institute of Pharmaceutical Education and Research (NIPER), Mohali. Throughout the study, animals were fed with a standard rodent chow diet and water ad libitum.
Xenograft, the nude mice model, was developed by injecting A549 (1 × 10 ^6 cells, suspended in Matrigel™) subcutaneously into the right flank of each mouse. Tumor-bearing mice were randomly divided into four groups with seven animals per group after attaining an anticipated tumor volume of >80 mm^3. […] Treatment was given intraperitoneally once a week for a period of 21 days. Tumor volume and body weight were measured weekly during the study. Vernier caliper was used to measure the size of A549-cell-induced tumors weekly, starting from two weeks after inoculation.
Tumors were surgically removed from animals, sliced, and fixed in 10% v/v formal saline. For the histological study, the sliced tumors were processed and embedded in paraffin; sections of 5 µm were mounted on poly-L-lysine-coated glass slides. Sections were then stained with hematoxylin & eosin (H&E) to observe the structural alterations as described.

in vitro = conditions: mouse, microsomes, pH 7.4
Description: as §1

[6] = mouse, liver microsomes, pH 7.4

| SMILES | PTEN protein level in tumors [1] | Expression of the Hif-1α gene in tumors [2] | microsomal CLint at 1 µM [3] [µL/min/mg] | half-life at 1 µM [3] [min] | remaining at 0.5 h, 1 µM [3] [%] | Kaplan–Meier survival (A549 xenograft tumor; 30 mg/kg, i.p.) | Average tumor weight (A549 xenograft tumor; 30 mg/kg, i.p.) | Cytotoxic effect on the tumor (H&E staining) (A549 xenograft tumor) | other results |
| --- | --- | --- | --- | --- | --- | --- | --- | --- | --- |
| COc1cc(C=Nc2c(C#N)nc3c(-c4cc(OC)c(OC)c(OC)c4)nc4ccccc4n23)cc(OC)c1OC [6b, 1-((3,4,5-Trimethoxybenzylidene)amino)-4-(3,4,5-trimethoxyphenyl)imidazo[1,2-a]quinoxaline-2-carbonitrile] | increased | decreased | 80 | 17.2 | 29.9 | improved the survival of the mice | lower | marked cytotoxic damage | AKT, P-AKT and PI3K protein level in tumor masses ([1]; LD (10 mg/kg) and HD (30 mg/kg), vs untreated mice): decreased; Expression of EMT-regulating genes Twist and Zeb1 in tumors [2]: decreased; Stability in human liver microsomes (in words) [3]: good stability; IC50 (EGFR): 211 nM; IC50 [4]: 3.65 µM; Stability in mouse liver microsomes (in words) [5]: good stability; half-life at 1 µM [5, 6]: 36.1 min; microsomal CLint at 1 µM [5, 6]: 38 µL/min/mg; remaining at 0.5 h, 1 µM [5, 6]: 56.2%; % tumor growth inhibition (A549 xenograft tumor; 10 mg/kg (LD)): 16%; Effect on tumor volume / size (A549 xenograft tumor; 30 mg/kg, i.p., vs tumor control): significantly decreased the size of the tumors; % tumor growth inhibition (A549 xenograft tumor; 30 mg/kg): 33% |
| NC(=O)N1c2ccccc2C=Cc2ccccc21 [Carbamazepine, reference compound] | – | – | 3 | 478 | 95.7 | – | – | – | half-life at 1 µM (in vitro): 130 min; microsomal CLint at 1 µM (in vitro): 11 µL/min/mg; remaining at 0.5 h, 1 µM (in vitro): 85.2% |
| COc1cc2ncnc(Nc3ccc(F)c(Cl)c3)c2cc1OCCCN1CCOCC1 [gefitinib, reference compound] | increased | decreased | – | – | – | improved the survival of the mice | lower | marked cytotoxic damage | Effect on tumor volume / size (A549 xenograft tumor; mouse, in vivo): suppression of tumor volume to some extent |

Reference: article PMC9457798, “In Vivo Anticancer Evaluation of 6b, a Non-Covalent Imidazo[1,2-a]quinoxaline-Based Epidermal Growth Factor Receptor Inhibitor against Human Xenograft Tumor in Nude Mice” (Molecules, 2022)
